The nature of the series: solvent given as SMILES.

Consider `N#Cc1nc(N(Cc2ccc(I)cc2)Cc2ccc(I)cc2)c(C#N)nc1N(Cc1ccc(I)cc1)Cc1ccc(I)cc1`, for which the emission maximum (in ClC(Cl)Cl) is on record as 574 nm.
Take `CC1=C(c2ccccc2)C(C)=[N+]2C1=C(c1c(-c3ccccn3)nc3ccccn13)c1c(C)c(-c3ccccc3)c(C)n1[B-]2(F)F`: for the setting “in ClCCl”, the emission maximum is 585 nm.
Consider `CC(C)(C)c1cc2c(c(C(C)(C)C)c1)O[B-](F)(F)[n+]1c-2nc(-c2ccccc2)c2cc(Cl)ccc21`, for which the emission maximum (in Cc1ccccc1) turned out to be 552 nm.
On to `O=S(=O)(c1ccc(N2c3ccccc3Oc3ccccc32)cc1)c1ccc(N2c3ccccc3Oc3ccccc32)cc1`, for which the emission maximum is recorded as 524 nm (in C1COCCO1); 577 nm (in CC(C)=O); 507 nm (in Cc1ccccc1); 539 nm (in ClC(Cl)Cl); 505 nm (in c1cc(-n2c3ccccc3c3ccccc32)cc(-n2c3ccccc3c3ccccc32)c1).
Consider `Cc1cc(O)c(-c2[nH]c(=O)n3c2-c2ccccc2C3=O)cc1Cl`, for which the emission maximum is 479 nm (in CC#N), 496 nm (in CO) and 478 nm (in ClCCl).
On to `O=Cc1ccc(-c2ccc(O)c(-c3nc4ccccc4s3)c2)s1`, for which the emission maximum reads like this: (in CCO) 558 nm; (in ClCCl) 553 nm; (in O) 574 nm.
As for `Cc1ccccc1-c1c2ccc(=[N+]3CCOCC3)cc-2oc2cc(N3CCOCC3)ccc12`, the emission maximum reads like this: (in CCO) 582 nm; (in ClCCl) 575 nm.
The compound `Cc1cc(C)c(B2c3cc(C)ccc3N3c4ccc(C)cc4B(c4c(C)cc(C)cc4C)c4cc(C)cc2c43)c(C)c1` gave an emission maximum (in ClCCl) of 484 nm.
`CCCCCCOc1cc(N(CC)CC)ccc1/C=C/C(=C(C#N)C#N)c1ccc2c(c1)c1ccccc1n2CC`: the emission maximum (in ClCCl) turned out to be 583 nm.
`c1ccc([B-]2(c3ccccc3)Oc3ccc4ccccc4c3-c3c4ccccc4cc[n+]32)cc1` returned an emission maximum (in Cc1ccccc1) of 522 nm.
With `CCN(CC)c1ccc2c(C(F)(F)F)cc(=O)oc2c1`, the emission maximum (in C1CCCCC1) was found to be 433 nm; the emission maximum (in CC#N) amounted to 501 nm; the emission maximum (in CCO) is 509 nm; the emission maximum (in CCOC(C)=O) came to 479 nm; the emission maximum (in OCC(O)CO) came out at 524 nm.
`CCN(CC)c1ccc2c(c1)oc(=O)c1c(C)nc3c(c(-c4ccccc4)nn3-c3ccccc3)c12`: the emission maximum (in ClCCl) is on record as 461 nm.
Consider `CC(C)(C)NS(=O)(=O)c1ccc2c(c1)C(=O)/C(=C1\Sc3ccc(S(=O)(=O)NC(C)(C)C)cc3C1=O)S2`, for which the emission maximum is, setting by setting: (in C1COCCO1) 589 nm; (in CN(C)C=O) 604 nm; (in CS(C)=O) 618 nm.
With `C(=C\c1ccnc2ccccc12)/c1c2ccccc2cc2ccccc12`, the emission maximum is, setting by setting: (in CC1CCCCC1) 498 nm; (in CC#N) 530 nm.
Where the note is “in ClC(Cl)Cl”, `Clc1ccc(-c2nc(-c3ccccc3)c(N(c3ccccc3)c3ccccc3)s2)cc1` returned an emission maximum of 474 nm.
Regarding `COc1cc(OC)cc(C2=C3C(C)=C(I)C(/C=C/c4c[nH]c5ccc([N+](=O)[O-])cc45)=[N+]3[B-](F)(F)n3c(/C=C/c4c[nH]c5ccc([N+](=O)[O-])cc45)c(I)c(C)c32)c1`, the emission maximum runs as follows: (in C1CCOC1) 720 nm; (in CS(C)=O) 748 nm; (in ClCCl) 721 nm.
`Cc1nc2c(cc3c4c(cccc42)C(=O)OC3=O)o1`: the emission maximum (in CCO) was found to be 418 nm.
Regarding `CC(C)(C(=O)c1ccc(N2c3ccccc3C(C)(C)c3ccccc32)cc1)C(=O)c1ccc(N2c3ccccc3C(C)(C)c3ccccc32)cc1`, the emission maximum reads like this: (in Cc1ccccc1) 506 nm; (in c1ccc2c(c1)c1ccccc1n2-c1ccc(-c2ccc(-n3c4ccccc4c4ccccc43)cc2)cc1) 495.97 nm.
`CCOC(=O)c1ccc(NC(=O)COc2cc3c4c([nH]c3c(C)c2C)C(=O)CCC4)cc1`: the emission maximum (in C1COCCO1) turned out to be 408.59 nm; the emission maximum (in CC#N) came to 422.39 nm; the emission maximum (in CCO) is reported as 464.31 nm; the emission maximum (in CS(C)=O) was 426.09 nm; the emission maximum (in O) turned out to be 468.86 nm; the emission maximum (in c1ccccc1) is 411.45 nm.
`Cc1ccc(/C2=c3\cc/c(o3)=C(\c3ccc(C)cc3)c3ccc([nH]3)-c3ccc4n3[P-](=O)(=O)[N+]3=C(C=CC3=C4c3ccco3)c3ccc2[nH]3)cc1`: the emission maximum (in ClC(Cl)Cl) is 744 nm.
For the setting “in ClCCl”, `Cc1ccc(N(c2ccc(C)cc2)c2ccc(Oc3nnc(Cl)nn3)cc2)cc1` came in with an emission maximum of 550 nm.
As for `CC(=O)c1c2c(cc3ccc(N(C)C)cc13)CCC2`, the emission maximum runs as follows: (in C1CCCCC1) 466 nm; (in C1CCOC1) 497 nm; (in C1COCCO1) 495 nm; (in CC#N) 529 nm; (in CCO) 578 nm; (in CS(C)=O) 536 nm. Further, the emission maximum (in Cc1ccccc1) is 490 nm, the emission maximum (in ClC(Cl)Cl) is recorded as 516 nm and the emission maximum (in ClCCl) came to 510 nm.
With `CC(=O)c1ccc2ccc3cccc4ccc1c2c34`, the emission maximum is, setting by setting: (in C1CCOC1) 387 nm; (in CC#N) 390 nm; (in CCCCCC) 387 nm; (in CCO) 436 nm; (in CN(C)C=O) 392 nm; (in CO) 443 nm. Besides, the emission maximum by setting is: (in Cc1ccccc1) 392 nm; (in ClCCl) 396 nm.
With `COC(=O)c1cc(=O)n(Cc2ccccc2)c2cc(-c3ccc(OC)cc3)sc12`, the emission maximum turned out to be 477 nm (in CC#N) and 474 nm (in ClCCl).
With `CCC1(CC)c2ccccc2-c2c1c1c(c3c2C(CC)(CC)c2cc(B(c4c(C)cc(C)cc4C)c4c(C)cc(C)cc4C)ccc2-3)C(CC)(CC)c2cc(B(c3c(C)cc(C)cc3C)c3c(C)cc(C)cc3C)ccc2-1`, the emission maximum by setting is: (in C1CCOC1) 387 nm; (in CC#N) 398 nm; (in CC(C)=O) 394 nm; (in CCCCCC) 378 nm; (in ClC(Cl)Cl) 387 nm.
With `C(=C\c1cccc2ccccc12)/c1ccc(-c2nnc(-c3ccc(-c4cc5ccccc5s4)cc3)o2)cc1`, the emission maximum worked out at 441 nm (in CC#N); 437 nm (in CC(C)=O); 426 nm (in CCCCCCCC); 437 nm (in CCCCCCCCCCO); 436 nm (in CCCCCCCCO); 438 nm (in CCCCCO). The compound further came in with an emission maximum (in CCCO) of 441 nm, an emission maximum (in CN(C)C=O) of 447 nm, an emission maximum (in CO) of 448 nm and an emission maximum (in CS(C)=O) of 455 nm.
Take `CC(C)(C)c1ccc(-c2c3cccc4c(-c5ccccc5)cc5c(-c6ccc(C(C)(C)C)cc6)c6cccc7c(-c8ccccc8)cc2c(c76)c5c43)cc1`: the emission maximum (in ClCCl) was 465 nm.
Turning to `CN(C)c1ccc(/C=C/c2cc[n+](CCC[n+]3ccc(/C=C/c4ccc(N(C)C)cc4)cc3)cc2)cc1`, the emission maximum runs as follows: (in CC1COC(=O)O1) 604 nm; (in CC#N) 609 nm; (in CC(C)=O) 608 nm; (in CC(C)O) 594 nm; (in CCO) 601 nm; (in CN(C)C=O) 607 nm. The emission maximum (in CO) is 604 nm; the emission maximum (in CS(C)=O) came to 610 nm; the emission maximum (in ClC(Cl)Cl) is 566 nm; the emission maximum (in O) was found to be 597 nm; the emission maximum (in c1ccncc1) turned out to be 598 nm.
Take `Cc1cc(N2c3ccccc3C3(c4ccccc4-c4ccccc43)c3ccccc32)c(C)cc1-c1nc(-c2ccccc2)nc(-c2ccccc2)n1`: the emission maximum (in Cc1ccccc1) was 486 nm.
`C[C@]12C(=O)NC(=O)N([C@H]3CC(O)[C@@H](CO)O3)[C@H]1[C@H]1Oc3cc4oc(=O)ccc4cc3[C@H]12` (some centres not stated): the emission maximum runs as follows: (in CC(C)O) 428 nm; (in CCO) 432 nm; (in CCOCC) 410 nm; (in CO) 446 nm; (in O) 465 nm.
On to `CN(C)c1ccc(C#Cc2ccc3ccc4ccc(C#Cc5ccc(N(C)C)cc5)c5ccc2c3c45)cc1`, for which the emission maximum was found to be 491.8 nm (in C1COCCO1); 570.9 nm (in CC(C)=O); 459 nm (in CCCCCC); 531.8 nm (in CCCCCCO); 543 nm (in CCO); 529.9 nm (in CCOC(C)=O). The emission maximum by setting is: (in CO) 555.1 nm; (in Cc1ccccc1) 482 nm; (in ClCCl) 532.7 nm.
Consider `CCC1=C(C)C2=Cc3cccn3[B-](F)(F)[N+]2=C1C`, for which the emission maximum (in C1CCCCC1) amounted to 517.5 nm; the emission maximum (in CC(C)=O) was 516 nm; the emission maximum (in CCO) came out at 517 nm; the emission maximum (in CCOC(C)=O) stood at 516.5 nm; the emission maximum (in CO) worked out at 516.5 nm; the emission maximum (in OCC(F)(F)F) was determined as 515.5 nm.
Compound `COC(=O)c1ccc(C2=C3C(C)=CC(C)=[N+]3[B-](F)(F)n3c(/C=C/c4c[nH]cn4)cc(C)c32)cc1` yielded an emission maximum (in ClC(Cl)Cl) of 589 nm.
In the case of `O=C(O)c1ccccc1Nc1ccccc1`, the emission maximum reads like this: (in C1CCCCC1) 430 nm; (in C1CCOC1) 434 nm; (in C1COCCO1) 432 nm; (in CC#N) 398 nm; (in CCOC(C)=O) 434 nm; (in CN(C)C=O) 386 nm. The emission maximum amounted to 390 nm (in CO) and 450 nm (in ClC(Cl)Cl).
With `Clc1ncc(-c2c3ccccc3c(-c3cnc(Cl)nc3)c3ccccc23)cn1`, the emission maximum (in CCO) was 428 nm and the emission maximum (in ClCCl) is on record as 421 nm.
The compound `CNCCCN1c2ccccc2CCc2ccccc21` registered an emission maximum (in CC#N) of 348 nm, an emission maximum (in CO) of 356 nm and an emission maximum (in O) of 400 nm.
The compound `CC1(C)C(/C=C/C2=C(Cl)C(=C/C=C3/N(CCCS(=O)(=O)[O-])c4ccccc4C3(C)C)/CCC2)=[N+](CCCS(=O)(=O)[O-])c2ccccc21` gave an emission maximum (in CO) of 802 nm.

For the origin of these results see the Deep4Chem optical property database.
